Assay results as given in US12552792B2, “Solid forms of an FGFR inhibitor and processes for preparing the same” (Incyte Corporation, priority 2018, dated 2026).
Values joined by “and” are separate entries in the source; they are usually repeats but may differ in a detail not shown here. Equal entries are not always repeated.

Columns and labels:
[1] = Competitive slurry experiments with mixed Compound 1 polymorphs (XRPD); type: physicochemical; conditions: for Solid State Form after competitive slurry: saturated Form I solution + 5 mg each of Form I through Form XXVI, stirred overnight, XRPD; for Competitive slurry result (form by XRPD): DCM/MeOH (9:1, 0.6 mL), 5 mg each of Form I through Form XXVI
Procedure: To evaluate the transformation of solid forms of Compound 1, competitive slurry experiments were performed as follows. To the saturated solution of Form I in the solvent as listed in Table 11 was added Form I (5 mg), then 5 mg each of Form II through Form XXVI.
The slurry was stirred overnight, filtered and analyzed by XRPD.
A competitive slurry experiment was conducted in dichloromethane/methanol (9/1) according to the procedure in Table 12. The mixture of forms (Form I through Form XXVI) was converted to Form II after 15 min as shown by XRPD at various time points including 15 mins, 1 h, 18 h and 3 days, which indicated the Form II was consistently obtained.

[2] = test system: patients with advanced/metastatic or surgically unresectable cholangiocarcinoma; assay: Phase 2 clinical study in advanced/metastatic or surgically unresectable cholangiocarcinoma; conditions: for median PFS; Median time to events (95% Cl), months: Kaplan-Meier
Description: The study also considers exposure-response analyses for key efficacy and safety parameters.
The study enrolls approximately 100 subjects into Cohort A (FGFR2 translocations), 20 subjects into Cohort B (other FGF/FGFR alterations), and 20 subjects into Cohort C (US only, negative for FGF/FGFR alterations). […] Treatment will start on Day 1. Subjects undergo regular safety assessments during treatment as well as regular efficacy assessments. Subjects are allowed to continue administration in 21-day cycles until documented disease progression or unacceptable toxicity is reported.
One cycle is defined as 21 days.
The study subjects are those with advanced/metastatic or surgically unresectable cholangiocarcinoma with FGFR2 translocations, with other FGF/FGFR alterations, or who are negative for any FGF/FGFR alterations, who failed at least 1 previous treatment.
The key inclusion criteria include men and women, aged 18 or older. The subjects have histologically or cytologically confirmed advanced/metastatic or surgically unresectable cholangiocarcinoma. Subjects in Cohort A have FGFR2 translocations with a documented fusion partner in central laboratory report. Subjects in Cohort B have other FGF/FGFR alterations. Subjects in Cohort C (US only) are negative for FGF/FGFR alterations. Additional key inclusion criteria include radiographically measureable disease per RECIST v. 1.1; documentation of FGF/FGFR gene alteration status; documented disease progression after at least 1 line of prior systemic therapy; ECOG performance status of 0 to 2; a life expectancy greater than or equal to 12 weeks; adequate hepatic function; adequate renal function; serum phosphate≤institutional ULN; and serum calcium within institutional normal range.
The study schedule and procedures include regularly scheduled study visits at the clinical site as part of a 21-day cycle. Study visits begin with a prescreening to obtain FGF/FGFR status if unknown (results within approximately 2 years of screening are valid). Screening takes place on day −28 through day −1. Cycle 1 occurs on days 1, 8, and 15. Cycles 2+ begin on day 1. A safety follow up occurs 30 days (+5 days) from date of last dose. Disease status follow-up occurs every 9 weeks for subjects who discontinue for reasons other than disease progression. There is a survival follow-up every 12 weeks after discontinuation. […] Study visits include sample collection for hematology, chemistry, coagulation, endocrine monitoring, lipids, and urinalysis testing. Additionally, HIV screening (required for subjects outside the US) and hepatitis screening (serology) is done at screening. Pregnancy testing is also be done at screening, Day 1 of every cycle before dose administration, and at end-of-treatment. FGF/FGFR status may be determined locally.
Tumor tissue is evaluated through the central laboratory for confirmation of FGF/FGFR alteration status. Blood samples for population pharmacokinetic analysis and whole blood pharmacodynamics and correlative studies are collected at various time points throughout the study and analyzed at the central laboratory or designee.
Adverse event assessments, vital signs, electrocardiograms, physical examination, ECOG performance status comprehensive eye examination, and tumor and disease response assessments are performed by the investigative site. An objective assessment of disease status is performed at screening. Subsequently, disease status including RECIST radiological response assessment is assessed every 2 cycles for the first 4 cycles and every 3 cycles thereafter. A central radiology group provides centralized reading on all assessments.
The primary endpoint of the study is to determine the objective response rate (ORR) in subjects with FGFR2 translocations based on the central genomics laboratory results.

[3] = Cohort A (FGFR2 translocations), preliminary
[4] = Cohort A (n = 47), independent reviewer
[5] = Cohort B (n = 22), independent reviewer
[6] = Cohort C (n = 18), independent reviewer
[7] = all patients, 13.5 mg QD 2-weeks-on/1-week-off

Compound: CCN1C(=O)N(c2c(F)c(OC)cc(OC)c2F)Cc2cnc3[nH]c(CN4CCOCC4)cc3c21 [Compound 1, 3-(2,6-difluoro-3,5-dimethoxyphenyl)-1-ethyl-8-(morpholin-4-ylmethyl)-1,3,4,7-tetrahydro-2H-pyrrolo[3′,2′:5,6]pyrido[4,3-d]pyrimidin-2-one]
- Solid State Form after competitive slurry ([1]; Acetonitrile (1.7 mL)): Form I
- Competitive slurry result (form by XRPD) ([1]; stirred for 15 min): Form II
- Competitive slurry result (form by XRPD) ([1]; stirred for 60 min): Form II
- Competitive slurry result (form by XRPD) ([1]; stirred for 18 h): Form II
- Competitive slurry result (form by XRPD) ([1]; stirred for 3 days): Form II
- Solid State Form after competitive slurry ([1]; Ethanol (1.7 mL)): Form I
- Solid State Form after competitive slurry ([1]; Iso-propanol (1.7 mL)): Form I
- Alopecia, TEAEs, All Grades, % of patients ([2]; All Cohorts (N = 89)): 41.6%
- Alopecia, TEAEs, Grade 3/4, % of patients ([2]; All Cohorts (N = 89)): 0.0%
- Alopecia, TRAEs, All Grades, % of patients ([2]; All Cohorts (N = 89)): 37.1%
- Alopecia, TRAEs, Grade 3/4, % of patients ([2]; All Cohorts (N = 89)): 0.0%
- Arthralgia, TEAEs, All Grades, % of patients ([2]; All Cohorts (N = 89)): 23.6%
- Arthralgia, TEAEs, Grade 3/4, % of patients ([2]; All Cohorts (N = 89)): 6.7%
- Arthralgia, TRAEs, All Grades, % of patients ([2]; All Cohorts (N = 89)): 11.2%
- Arthralgia, TRAEs, Grade 3/4, % of patients ([2]; All Cohorts (N = 89)): 4.5%
- Constipation, TEAEs, All Grades, % of patients ([2]; All Cohorts (N = 89)): 30.3%
- Constipation, TEAEs, Grade 3/4, % of patients ([2]; All Cohorts (N = 89)): 0.0%
- Constipation, TRAEs, All Grades, % of patients ([2]; All Cohorts (N = 89)): 11.2%
- Constipation, TRAEs, Grade 3/4, % of patients ([2]; All Cohorts (N = 89)): 0.0%
- Decreased appetite, TEAEs, All Grades, % of patients ([2]; All Cohorts (N = 89)): 37.1%
- Decreased appetite, TEAEs, Grade 3/4, % of patients ([2]; All Cohorts (N = 89)): 2.2%
- Decreased appetite, TRAEs, All Grades, % of patients ([2]; All Cohorts (N = 89)): 24.7%
- Decreased appetite, TRAEs, Grade 3/4, % of patients ([2]; All Cohorts (N = 89)): 1.1%
- Diarrhea, TEAEs, All Grades, % of patients ([2]; All Cohorts (N = 89)): 39.3%
- Diarrhea, TEAEs, Grade 3/4, % of patients ([2]; All Cohorts (N = 89)): 2.2%
- Diarrhea, TRAEs, All Grades, % of patients ([2]; All Cohorts (N = 89)): 29.2%
- Diarrhea, TRAEs, Grade 3/4, % of patients ([2]; All Cohorts (N = 89)): 2.2%
- Dry eye, TEAEs, All Grades, % of patients ([2]; All Cohorts (N = 89)): 20.2%
- Dry eye, TEAEs, Grade 3/4, % of patients ([2]; All Cohorts (N = 89)): 1.1%
- Dry eye, TRAEs, All Grades, % of patients ([2]; All Cohorts (N = 89)): 13.5%
- Dry eye, TRAEs, Grade 3/4, % of patients ([2]; All Cohorts (N = 89)): 1.1%
- Dry mouth, TEAEs, All Grades, % of patients ([2]; All Cohorts (N = 89)): 29.2%
- Dry mouth, TEAEs, Grade 3/4, % of patients ([2]; All Cohorts (N = 89)): 0.0%
- Dry mouth, TRAEs, All Grades, % of patients ([2]; All Cohorts (N = 89)): 23.6%
- Dry mouth, TRAEs, Grade 3/4, % of patients ([2]; All Cohorts (N = 89)): 0.0%
- Dysgeusia, TEAEs, All Grades, % of patients ([2]; All Cohorts (N = 89)): 36.0%
- Dysgeusia, TEAEs, Grade 3/4, % of patients ([2]; All Cohorts (N = 89)): 0.0%
- Dysgeusia, TRAEs, All Grades, % of patients ([2]; All Cohorts (N = 89)): 34.8%
- Dysgeusia, TRAEs, Grade 3/4, % of patients ([2]; All Cohorts (N = 89)): 0.0%
- Edema peripheral, TEAEs, All Grades, % of patients ([2]; All Cohorts (N = 89)): 22.5%
- Edema peripheral, TEAEs, Grade 3/4, % of patients ([2]; All Cohorts (N = 89)): 1.1%
- Edema peripheral, TRAEs, All Grades, % of patients ([2]; All Cohorts (N = 89)): 3.4%
- Edema peripheral, TRAEs, Grade 3/4, % of patients ([2]; All Cohorts (N = 89)): 0.0%
- Fatigue, TEAEs, All Grades, % of patients ([2]; All Cohorts (N = 89)): 36.0%
- Fatigue, TEAEs, Grade 3/4, % of patients ([2]; All Cohorts (N = 89)): 4.5%
- Fatigue, TRAEs, All Grades, % of patients ([2]; All Cohorts (N = 89)): 23.6%
- Fatigue, TRAEs, Grade 3/4, % of patients ([2]; All Cohorts (N = 89)): 1.1%
- Hyperphosphatemia, TEAEs, All Grades, % of patients ([2]; All Cohorts (N = 89)): 60.7%
- Hyperphosphatemia, TEAEs, Grade 3/4, % of patients ([2]; All Cohorts (N = 89)): 0.0%
- Hyperphosphatemia, TRAEs, All Grades, % of patients ([2]; All Cohorts (N = 89)): 55.1%
- Hyperphosphatemia, TRAEs, Grade 3/4, % of patients ([2]; All Cohorts (N = 89)): 0.0%
- Hypophosphatemia, TEAEs, All Grades, % of patients ([2]; All Cohorts (N = 89)): 25.8%
- Hypophosphatemia, TEAEs, Grade 3/4, % of patients ([2]; All Cohorts (N = 89)): 13.5%
- Hypophosphatemia, TRAEs, All Grades, % of patients ([2]; All Cohorts (N = 89)): 10.1%
- Hypophosphatemia, TRAEs, Grade 3/4, % of patients ([2]; All Cohorts (N = 89)): 5.6%
- Nausea, TEAEs, All Grades, % of patients ([2]; All Cohorts (N = 89)): 29.2%
- Nausea, TEAEs, Grade 3/4, % of patients ([2]; All Cohorts (N = 89)): 0.0%
- Nausea, TRAEs, All Grades, % of patients ([2]; All Cohorts (N = 89)): 15.7%
- Nausea, TRAEs, Grade 3/4, % of patients ([2]; All Cohorts (N = 89)): 0.0%
- Stomatitis, TEAEs, All Grades, % of patients ([2]; All Cohorts (N = 89)): 30.3%
- Stomatitis, TEAEs, Grade 3/4, % of patients ([2]; All Cohorts (N = 89)): 3.4%
- Stomatitis, TRAEs, All Grades, % of patients ([2]; All Cohorts (N = 89)): 27.0%
- Stomatitis, TRAEs, Grade 3/4, % of patients ([2]; All Cohorts (N = 89)): 3.4%
- Median OS ([2]; Cohort A (FGFR2 translocations)): 15.8 months
- median PFS; Median time to events (95% Cl), months ([2]; Cohort A (FGFR2 translocations), 47 evaluable patients, independent reviewer): 9.2 months and 9.20 (6.44-NE) months
- objective response rate (ORR) ([2]; Cohort A (FGFR2 translocations), 47 patients followed >=8 months, 13.5 mg QD 2-weeks-on/1-week-off, independent reviewer, preliminary): 40.4%
- Disease control rate (DCR) [2, 3]: 85.1%
- median duration of response (DOR) [2, 3]: has not been reached
- probability of maintaining response for greater than or equal to six months [2, 3]: 86.2%
- Best OR: CR, % of patients [2, 4]: (0.0) %
- Best OR: NE, % of patients [2, 4]: (4.3) %
- Best OR: PD, % of patients [2, 4]: (10.6) %
- Best OR: PR, % of patients [2, 4]: (40.4) %
- Best OR: SD, % of patients [2, 4]: (44.7) %
- DCR [2, 4]: 85.1%
- ORR [2, 4]: 40.4%
- PFS Events, % ([2]; Cohort A, 47 evaluable patients): 46.8%
- Best OR: CR, % of patients [2, 5]: (0.0) %
- Best OR: NE, % of patients [2, 5]: (22.7) %
- Best OR: PD, % of patients [2, 5]: (31.8) %
- Best OR: PR, % of patients [2, 5]: (0.0) %
- Best OR: SD, % of patients [2, 5]: (45.5) %
- DCR [2, 5]: 45.5%
- ORR [2, 5]: 0%
- Median OS ([2]; Cohort B (other FGF/FGFR alterations)): 6.8 months
- median PFS; Median time to events (95% Cl), months ([2]; Cohort B (other FGF/FGFR alterations), 22 evaluable patients, independent reviewer): 2.1 months and 2.10 (1.18-6.80) months
- Disease control rate (DCR) ([2]; Cohort B (other FGF/FGFR alterations), preliminary): 45.5%
- PFS Events, % ([2]; Cohort B, 22 evaluable patients): 77.3%
- Best OR: CR, % of patients [2, 6]: (0.0) %
- Best OR: NE, % of patients [2, 6]: (22.2) %
- Best OR: PD, % of patients [2, 6]: (55.6) %
- Best OR: PR, % of patients [2, 6]: (0.0) %
- Best OR: SD, % of patients [2, 6]: (22.2) %
- DCR [2, 6]: 22.2%
- ORR [2, 6]: 0%
- Median OS ([2]; Cohort C (negative for FGF/FGFR alterations)): 4.0 months
- median PFS; Median time to events (95% Cl), months ([2]; Cohort C (negative for FGF/FGFR alterations), 18 evaluable patients, independent reviewer): 1.7 months and 1.68 (1.38-1.84) months
- Disease control rate (DCR) ([2]; Cohort C (negative for FGF/FGFR alterations), preliminary): 22.2%
- PFS Events, % ([2]; Cohort C, 18 evaluable patients): 88.9%
- patients with TEAEs with a fatal outcome ([2]; all cohorts, none related to study treatment): Five
- Grade 3 or greater TEAE abdominal pain [2, 7]: 6.7%
- Grade 3 or greater TEAE arthralgia [2, 7]: 6.7%
- Grade 3 or greater TEAE hyponatremia [2, 7]: 7.9%
- Grade 3 or greater TEAE hypophosphatemia [2, 7]: 13.5%
- TEAE alopecia [2, 7]: 41.6%
- TEAE decreased appetite [2, 7]: 37.1%
- TEAE diarrhea [2, 7]: 39.3%
- TEAE dysgeusia [2, 7]: 36.0%
- TEAE fatigue [2, 7]: 36.0%
- TEAE hyperphosphatemia [2, 7]: 60.7%
- tolerability (in words) ([2]; interim analysis, patients with at least 8 months follow up): generally well tolerated
